Assay: In vivo biodistribution of radiolabelled compounds in rats
Excerpt: In vivo biodistribution of radiolabelled compounds of the invention indicated high uptake in the tissues which have known PBR sites. Tables 2 to 4 show the biodistribution of the compounds of Examples 1-3, in which the iodine atom is radiolabelled, when administered to rats.

## CNC(=O)Cc1c(-c2ccc([123I])cc2)nc2ccc(Cl)cn12 [^123-I Example 1]
5 Min
  Biodistribution (% ID/g organ) Adrenals: 4.51 ± 1.32 % ID/g organ
  Biodistribution (% ID/g organ) Blood: 0.25 ± 0.04 % ID/g organ
  Biodistribution (% ID/g organ) Brain: 0.11 ± 0.02 % ID/g organ
  Biodistribution (% ID/g organ) Heart: 3.25 ± 0.58 % ID/g organ
  Biodistribution (% ID/g organ) Kidney: 1.8 ± 0.35 % ID/g organ
  Biodistribution (% ID/g organ) Liver: 0.94 ± 0.12 % ID/g organ
  Biodistribution (% ID/g organ) Lungs: 2.81 ± 0.49 % ID/g organ
  Biodistribution (% ID/g organ) Olfactive bulbs: 0.2 ± 0.02 % ID/g organ
  Biodistribution (% ID/g organ) Testes: 0.14 ± 0.03 % ID/g organ
15 Min
  Biodistribution (% ID/g organ) Adrenals: 7.8 ± 2.16 % ID/g organ
  Biodistribution (% ID/g organ) Blood: 0.16 ± 0.01 % ID/g organ
  Biodistribution (% ID/g organ) Brain: 0.08 ± 0.01 % ID/g organ
  Biodistribution (% ID/g organ) Heart: 2.09 ± 0.09 % ID/g organ
  Biodistribution (% ID/g organ) Kidney: 1.66 ± 0.13 % ID/g organ
  Biodistribution (% ID/g organ) Liver: 0.7 ± 0.07 % ID/g organ
  Biodistribution (% ID/g organ) Lungs: 1.79 ± 0.18 % ID/g organ
  Biodistribution (% ID/g organ) Olfactive bulbs: 0.18 ± 0.03 % ID/g organ
  Biodistribution (% ID/g organ) Testes: 0.22 ± 0.06 % ID/g organ
24 Hrs
  Biodistribution (% ID/g organ) Adrenals: 0.22 ± 0.09 % ID/g organ
  Biodistribution (% ID/g organ) Blood: 0.01 ± 0.001 % ID/g organ
  Biodistribution (% ID/g organ) Brain: 0 % ID/g organ
  Biodistribution (% ID/g organ) Heart: 0.02 ± 0.001 % ID/g organ
  Biodistribution (% ID/g organ) Kidney: 0.03 ± 0.001 % ID/g organ
  Biodistribution (% ID/g organ) Liver: 0.09 ± 0.01 % ID/g organ
  Biodistribution (% ID/g organ) Lungs: 0.02 ± 0.001 % ID/g organ
  Biodistribution (% ID/g organ) Olfactive bulbs: 0.01 ± 0.001 % ID/g organ
  Biodistribution (% ID/g organ) Testes: 0.01 ± 0.001 % ID/g organ
30 Min
  Biodistribution (% ID/g organ) Adrenals: 11 ± 2.57 % ID/g organ
  Biodistribution (% ID/g organ) Blood: 0.12 ± 0.01 % ID/g organ
  Biodistribution (% ID/g organ) Brain: 0.06 ± 0.01 % ID/g organ
  Biodistribution (% ID/g organ) Heart: 1.41 ± 0.14 % ID/g organ
  Biodistribution (% ID/g organ) Kidney: 1.25 ± 0.09 % ID/g organ
  Biodistribution (% ID/g organ) Liver: 0.59 ± 0.04 % ID/g organ
  Biodistribution (% ID/g organ) Lungs: 1.39 ± 0.14 % ID/g organ
  Biodistribution (% ID/g organ) Olfactive bulbs: 0.13 ± 0.02 % ID/g organ
  Biodistribution (% ID/g organ) Testes: 0.26 ± 0.05 % ID/g organ
60 Min
  Biodistribution (% ID/g organ) Adrenals: 11.3 ± 0.87 % ID/g organ
  Biodistribution (% ID/g organ) Blood: 0.1 ± 0.01 % ID/g organ
  Biodistribution (% ID/g organ) Brain: 0.04 ± 0.001 % ID/g organ
  Biodistribution (% ID/g organ) Heart: 1.07 ± 0.09 % ID/g organ
  Biodistribution (% ID/g organ) Kidney: 0.97 ± 0.07 % ID/g organ
  Biodistribution (% ID/g organ) Liver: 0.47 ± 0.02 % ID/g organ
  Biodistribution (% ID/g organ) Lungs: 0.97 ± 0.22 % ID/g organ
  Biodistribution (% ID/g organ) Olfactive bulbs: 0.14 ± 0.001 % ID/g organ
  Biodistribution (% ID/g organ) Testes: 0.28 ± 0.05 % ID/g organ
180 Min
  Biodistribution (% ID/g organ) Adrenals: 9.84 ± 1.69 % ID/g organ
  Biodistribution (% ID/g organ) Blood: 0.07 ± 0.001 % ID/g organ
  Biodistribution (% ID/g organ) Brain: 0.03 ± 0.001 % ID/g organ
  Biodistribution (% ID/g organ) Heart: 0.68 ± 0.09 % ID/g organ
  Biodistribution (% ID/g organ) Kidney: 0.61 ± 0.02 % ID/g organ
  Biodistribution (% ID/g organ) Liver: 0.37 ± 0.01 % ID/g organ
  Biodistribution (% ID/g organ) Lungs: 0.72 ± 0.05 % ID/g organ
  Biodistribution (% ID/g organ) Olfactive bulbs: 0.09 ± 0.02 % ID/g organ
  Biodistribution (% ID/g organ) Testes: 0.25 ± 0.01 % ID/g organ
240 Min
  Biodistribution (% ID/g organ) Adrenals: 6.78 ± 1.27 % ID/g organ
  Biodistribution (% ID/g organ) Blood: 0.06 ± 0.01 % ID/g organ
  Biodistribution (% ID/g organ) Brain: 0.02 ± 0.01 % ID/g organ
  Biodistribution (% ID/g organ) Heart: 0.54 ± 0.05 % ID/g organ
  Biodistribution (% ID/g organ) Kidney: 0.5 ± 0.07 % ID/g organ
  Biodistribution (% ID/g organ) Liver: 0.33 ± 0.04 % ID/g organ
  Biodistribution (% ID/g organ) Lungs: 0.63 ± 0.05 % ID/g organ
  Biodistribution (% ID/g organ) Olfactive bulbs: 0.07 ± 0.001 % ID/g organ
  Biodistribution (% ID/g organ) Testes: 0.22 ± 0.03 % ID/g organ
360 Min
  Biodistribution (% ID/g organ) Adrenals: 5.7 ± 0.15 % ID/g organ
  Biodistribution (% ID/g organ) Blood: 0.05 ± 0.001 % ID/g organ
  Biodistribution (% ID/g organ) Brain: 0.02 ± 0.001 % ID/g organ
  Biodistribution (% ID/g organ) Heart: 0.38 ± 0.02 % ID/g organ
  Biodistribution (% ID/g organ) Kidney: 0.36 ± 0.01 % ID/g organ
  Biodistribution (% ID/g organ) Liver: 0.27 ± 0.01 % ID/g organ
  Biodistribution (% ID/g organ) Lungs: 0.44 ± 0.07 % ID/g organ
  Biodistribution (% ID/g organ) Olfactive bulbs: 0.05 ± 0.001 % ID/g organ
  Biodistribution (% ID/g organ) Testes: 0.16 ± 0.03 % ID/g organ

Source: patent publication US6379649B1, “Imidazo(1,2-a)pyridines as peripheral benzodiazepine receptor binding agents” (Australian Nuclear Science & Technology Organisation, priority 1998, dated 2002)
